Data published in ChEMBL document CHEMBL1156023, “Grassystatins A-C from marine cyanobacteria, potent cathepsin E inhibitors that reduce antigen presentation” (J Med Chem, 2009).
Square brackets hold non-standard residues; d marks the D form. Peptide text beside a SMILES is read from it. * marks the point of attachment. Sta = CC(C)C[C@H](N)[C@@H](O)CC(=O)O; NMe2Val = CC(C)[C@@H](C(=O)*)N(C)C; dNMeF = CN[C@H](Cc1ccccc1)C(=O)O; dHiv = CC(C)[C@@H](O)C(=O)O; Hiv = CC(C)[C@H](O)C(=O)O

Experiments:
[1] = molecular target: T1, Stromelysin-2 (Homo sapiens, UniProt P09238); assay: Inhibition of MMP10 catalytic domain after 10 to 15 mins by fluorescence assay
Target sequence in this assay (P09238 whole entry, the tested form may be a part): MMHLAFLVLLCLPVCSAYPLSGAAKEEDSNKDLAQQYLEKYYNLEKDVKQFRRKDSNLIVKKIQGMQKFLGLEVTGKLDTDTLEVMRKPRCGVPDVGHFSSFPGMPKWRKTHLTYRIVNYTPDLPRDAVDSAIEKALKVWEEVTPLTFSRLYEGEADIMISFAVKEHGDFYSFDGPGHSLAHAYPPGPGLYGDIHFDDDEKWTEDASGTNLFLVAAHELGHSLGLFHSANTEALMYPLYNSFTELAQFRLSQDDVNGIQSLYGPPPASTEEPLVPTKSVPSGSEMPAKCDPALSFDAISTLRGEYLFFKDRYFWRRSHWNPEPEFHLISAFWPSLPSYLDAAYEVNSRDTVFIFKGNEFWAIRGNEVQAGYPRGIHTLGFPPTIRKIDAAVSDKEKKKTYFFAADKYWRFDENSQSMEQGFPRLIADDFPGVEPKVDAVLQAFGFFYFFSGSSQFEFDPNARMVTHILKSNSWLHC

[2] = molecular target: Plasminogen (Homo sapiens) (UniProt P00747); assay: Inhibition of human plasmin assessed as residual activity at 10 uM after 10 to 15 mins by fluorescence assay relative to control
[3] = molecular target: Renin (Homo sapiens, UniProt P00797); assay: Inhibition of human renin after 10 to 15 mins by fluorescence assay
Renin, sequence (P00797 whole entry): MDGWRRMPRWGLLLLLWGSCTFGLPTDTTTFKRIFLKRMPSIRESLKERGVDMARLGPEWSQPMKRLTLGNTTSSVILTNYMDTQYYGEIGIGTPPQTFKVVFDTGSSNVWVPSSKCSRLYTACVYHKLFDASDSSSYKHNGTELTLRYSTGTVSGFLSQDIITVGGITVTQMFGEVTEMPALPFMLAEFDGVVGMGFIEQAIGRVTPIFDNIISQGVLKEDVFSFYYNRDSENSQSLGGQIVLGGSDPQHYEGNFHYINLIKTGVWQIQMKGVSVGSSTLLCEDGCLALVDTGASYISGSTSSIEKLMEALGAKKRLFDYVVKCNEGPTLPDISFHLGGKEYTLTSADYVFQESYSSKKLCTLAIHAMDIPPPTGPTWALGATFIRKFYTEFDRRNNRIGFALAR

[4] = molecular target: Plasma kallikrein (Homo sapiens) (UniProt P03952); assay: Inhibition of plasma kallikrein assessed as residual activity at 10 uM after 10 to 15 mins by fluorescence assay relative to control; type: cell-free
[5] = molecular target: Caspase-5 (Homo sapiens, UniProt P51878); assay: Inhibition of caspase 5 after 10 to 15 mins by fluorescence assay
[6] = molecular target: Kallikrein-8 (Homo sapiens) (UniProt O60259); assay: Inhibition of kallikrein 8 assessed as residual activity at 10 uM after 10 to 15 mins by fluorescence assay relative to control
[7] = molecular target: T2, Neutrophil collagenase (Homo sapiens, UniProt P22894); assay: Inhibition of MMP8 assessed as residual activity at 10 uM after 10 to 15 mins by fluorescence assay relative to control
[8] = molecular target: Caspase-7 (Homo sapiens) (UniProt P55210); assay: Inhibition of caspase 7 assessed as residual activity at 10 uM after 10 to 15 mins by fluorescence assay relative to control
[9] = molecular target: T3, Collagenase 3 (Homo sapiens, UniProt P45452); assay: Inhibition of MMP13 assessed as residual activity at 10 uM after 10 to 15 mins by fluorescence assay relative to control
[10] = molecular target: Chymotrypsin-like elastase family member 1 (Sus scrofa) (UniProt P00772); assay: Inhibition of porcine pancreatic elastase assessed as residual activity at 10 uM after 10 to 15 mins by fluorescence assay relative to control
Chymotrypsin-like elastase family member 1 (Sus scrofa), sequence (P00772 whole entry): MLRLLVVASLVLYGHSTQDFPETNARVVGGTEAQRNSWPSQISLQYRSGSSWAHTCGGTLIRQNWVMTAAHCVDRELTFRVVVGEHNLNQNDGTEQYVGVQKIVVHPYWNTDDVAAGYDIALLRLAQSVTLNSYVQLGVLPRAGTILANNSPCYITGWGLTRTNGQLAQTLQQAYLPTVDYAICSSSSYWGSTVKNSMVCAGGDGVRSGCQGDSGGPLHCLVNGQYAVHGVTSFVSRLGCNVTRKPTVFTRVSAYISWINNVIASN

[11] = molecular target: Caspase-9 (Homo sapiens, UniProt P55211); assay: Inhibition of caspase 9 after 10 to 15 mins by fluorescence assay
Caspase-9, sequence (P55211 1-315 limits assumed): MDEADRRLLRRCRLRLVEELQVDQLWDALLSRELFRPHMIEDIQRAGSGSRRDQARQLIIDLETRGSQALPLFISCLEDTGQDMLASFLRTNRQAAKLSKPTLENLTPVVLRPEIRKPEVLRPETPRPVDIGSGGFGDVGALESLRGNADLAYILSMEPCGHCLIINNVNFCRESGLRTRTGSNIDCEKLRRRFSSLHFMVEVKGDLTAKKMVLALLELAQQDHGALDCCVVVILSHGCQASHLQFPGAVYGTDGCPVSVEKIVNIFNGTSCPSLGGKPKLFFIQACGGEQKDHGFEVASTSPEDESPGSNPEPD
Caspase-9, sequence (P55211 331-416 limits assumed): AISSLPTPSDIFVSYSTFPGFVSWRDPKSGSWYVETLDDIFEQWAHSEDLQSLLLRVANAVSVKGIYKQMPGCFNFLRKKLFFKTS

[12] = molecular target: Caspase-4 (Homo sapiens, UniProt P49662); assay: Inhibition of caspase 4 after 10 to 15 mins by fluorescence assay
[13] = molecular target: Papain (Carica papaya) (UniProt P00784); assay: Inhibition of papaya papain assessed as residual activity at 10 uM after 10 to 15 mins by fluorescence assay relative to control
[14] = molecular target: Caspase-5 (Homo sapiens) (UniProt P51878); assay: Inhibition of caspase 5 assessed as residual activity at 10 uM after 10 to 15 mins by fluorescence assay relative to control
[15] = molecular target: Caspase-3 (Homo sapiens) (UniProt P42574); assay: Inhibition of caspase 3 assessed as residual activity at 10 uM after 10 to 15 mins by fluorescence assay relative to control
[16] = molecular target: Serine protease 1 (Bos taurus) (UniProt P00760); assay: Inhibition of bovine pancreatic trypsin assessed as residual activity at 10 uM after 10 to 15 mins by fluorescence assay relative to control
[17] = molecular target: Caspase-6 (Homo sapiens, UniProt P55212); assay: Inhibition of caspase 6 after 10 to 15 mins by fluorescence assay
[18] = molecular target: T4, Matrix metalloproteinase-9 (Homo sapiens, UniProt P14780); assay: Inhibition of MMP9 catalytic domain after 10 to 15 mins by fluorescence assay
T4 sequence (P14780 whole entry, the tested form may be a part): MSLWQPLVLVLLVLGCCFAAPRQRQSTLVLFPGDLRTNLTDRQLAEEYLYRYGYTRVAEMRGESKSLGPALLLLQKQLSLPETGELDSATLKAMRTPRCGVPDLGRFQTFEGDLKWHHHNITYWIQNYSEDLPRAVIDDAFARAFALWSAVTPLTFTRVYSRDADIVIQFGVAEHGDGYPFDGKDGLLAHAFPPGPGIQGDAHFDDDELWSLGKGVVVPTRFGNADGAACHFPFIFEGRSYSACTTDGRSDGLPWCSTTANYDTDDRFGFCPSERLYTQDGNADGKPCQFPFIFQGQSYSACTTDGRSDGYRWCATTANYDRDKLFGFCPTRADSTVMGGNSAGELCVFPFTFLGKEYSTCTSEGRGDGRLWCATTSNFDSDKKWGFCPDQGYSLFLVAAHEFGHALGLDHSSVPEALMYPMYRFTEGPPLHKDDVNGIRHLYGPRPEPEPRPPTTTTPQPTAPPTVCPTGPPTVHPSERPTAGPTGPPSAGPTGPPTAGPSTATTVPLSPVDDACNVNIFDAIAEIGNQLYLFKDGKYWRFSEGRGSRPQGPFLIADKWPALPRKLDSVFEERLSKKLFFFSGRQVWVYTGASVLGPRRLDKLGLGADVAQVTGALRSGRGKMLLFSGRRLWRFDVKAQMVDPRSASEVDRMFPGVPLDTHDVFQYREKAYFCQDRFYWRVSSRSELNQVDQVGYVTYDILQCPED

[19] = molecular target: T5, Vitamin K-dependent protein C (Homo sapiens, UniProt P04070); assay: Inhibition of activated protein C assessed as residual activity at 10 uM after 10 to 15 mins by fluorescence assay in presence of 50% […] relative to control
T5 sequence (P04070 43-197 limits assumed): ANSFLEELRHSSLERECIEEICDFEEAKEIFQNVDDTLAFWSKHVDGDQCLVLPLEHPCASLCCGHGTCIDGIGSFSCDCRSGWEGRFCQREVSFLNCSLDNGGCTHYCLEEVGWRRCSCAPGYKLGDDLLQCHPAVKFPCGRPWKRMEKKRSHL
T5 sequence (P04070 212-461 limits assumed): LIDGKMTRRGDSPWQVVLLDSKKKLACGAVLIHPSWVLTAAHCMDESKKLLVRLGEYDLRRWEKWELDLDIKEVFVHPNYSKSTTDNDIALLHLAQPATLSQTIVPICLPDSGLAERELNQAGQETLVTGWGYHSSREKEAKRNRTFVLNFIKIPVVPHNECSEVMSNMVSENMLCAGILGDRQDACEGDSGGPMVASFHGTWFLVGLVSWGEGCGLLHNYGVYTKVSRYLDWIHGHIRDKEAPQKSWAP

[20] = molecular target: Caspase-14 (Homo sapiens, UniProt P31944); assay: Inhibition of caspase 14 after 10 to 15 mins by fluorescence assay
[21] = molecular target: Caspase-4 (Homo sapiens) (UniProt P49662); assay: Inhibition of caspase 4 assessed as residual activity at 10 uM after 10 to 15 mins by fluorescence assay relative to control
[22] = molecular target: Caspase-9 (Homo sapiens) (UniProt P55211); assay: Inhibition of caspase 9 assessed as residual activity at 10 uM after 10 to 15 mins by fluorescence assay relative to control
Caspase-9 (Homo sapiens), sequence (P55211 1-315 limits assumed): as the sequence (P55211 1-315 limits assumed) above
Caspase-9 (Homo sapiens), sequence (P55211 331-416 limits assumed): as the sequence (P55211 331-416 limits assumed) above

[23] = molecular target: Caspase-2 (Homo sapiens) (UniProt P42575); assay: Inhibition of caspase 2 assessed as residual activity at 10 uM after 10 to 15 mins by fluorescence assay relative to control
Caspase-2 (Homo sapiens), sequence (P42575 170-325 limits assumed): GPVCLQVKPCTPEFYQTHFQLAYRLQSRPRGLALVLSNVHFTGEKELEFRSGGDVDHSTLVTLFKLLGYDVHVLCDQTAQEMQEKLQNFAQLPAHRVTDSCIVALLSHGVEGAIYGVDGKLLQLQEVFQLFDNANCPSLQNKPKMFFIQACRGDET
Caspase-2 (Homo sapiens), sequence (P42575 334-452 limits assumed): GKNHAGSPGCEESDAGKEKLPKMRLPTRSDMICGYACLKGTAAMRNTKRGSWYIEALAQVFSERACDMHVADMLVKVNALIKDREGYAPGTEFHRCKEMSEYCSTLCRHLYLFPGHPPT

[24] = molecular target: Caspase-10 (Homo sapiens) (UniProt Q92851); assay: Inhibition of caspase 10 assessed as residual activity at 10 uM after 10 to 15 mins by fluorescence assay relative to control
[25] = molecular target: T6, Matrix metalloproteinase-14 (Homo sapiens, UniProt P50281); assay: Inhibition of MMP14 catalytic domain after 10 to 15 mins by fluorescence assay
[26] = molecular target: Caspase-4 (Mus musculus) (UniProt P70343); assay: Inhibition of mouse caspase 11 assessed as residual activity at 10 uM after 10 to 15 mins by fluorescence assay relative to control
[27] = molecular target: Cathepsin E (Homo sapiens) (UniProt P14091); details: 5.08 to 100000 nM
[28] = molecular target: Urokinase-type plasminogen activator (Homo sapiens) (UniProt P00749); assay: Inhibition of urokinase assessed as residual activity at 10 uM after 10 to 15 mins by fluorescence assay relative to control
[29] = molecular target: Caspase-14 (Homo sapiens) (UniProt P31944); assay: Inhibition of caspase 14 assessed as residual activity at 10 uM after 10 to 15 mins by fluorescence assay relative to control
[30] = molecular target: T6, Matrix metalloproteinase-14; assay: Inhibition of MMP14 assessed as residual activity at 10 uM after 10 to 15 mins by fluorescence assay relative to control
[31] = molecular target: Pro-cathepsin H (Homo sapiens) (UniProt P09668); assay: Inhibition of cathepsin H assessed as residual activity at 10 uM after 10 to 15 mins by fluorescence assay relative to control
[32] = molecular target: Dipeptidyl peptidase 4 (Homo sapiens) (UniProt P27487); assay: Inhibition of DPP4 assessed as residual activity at 10 uM after 10 to 15 mins by fluorescence assay relative to control
[33] = molecular target: Stromelysin-3 (Homo sapiens, UniProt P24347); assay: Inhibition of MMP11 catalytic domain after 10 to 15 mins by fluorescence assay
[34] = molecular target: Cathepsin Z (Homo sapiens) (UniProt Q9UBR2); assay: Inhibition of cathepsin Z assessed as residual activity at 10 uM after 10 to 15 mins by fluorescence assay relative to control
[35] = molecular target: Chymase (Homo sapiens) (UniProt P23946); assay: Inhibition of chymase assessed as residual activity at 10 uM after 10 to 15 mins by fluorescence assay relative to control
Chymase (Homo sapiens), sequence (P23946 whole entry): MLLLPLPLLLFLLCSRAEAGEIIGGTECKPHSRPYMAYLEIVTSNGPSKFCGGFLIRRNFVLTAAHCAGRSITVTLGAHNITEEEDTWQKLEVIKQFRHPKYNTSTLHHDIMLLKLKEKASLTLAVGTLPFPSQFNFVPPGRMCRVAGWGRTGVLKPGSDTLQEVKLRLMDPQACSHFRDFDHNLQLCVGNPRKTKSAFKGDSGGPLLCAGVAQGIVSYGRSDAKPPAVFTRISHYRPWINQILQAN

[36] = molecular target: Coagulation factor X (Homo sapiens) (UniProt P00742); assay: Inhibition of factor 10a assessed as residual activity at 10 uM after 10 to 15 mins by fluorescence assay relative to control
[37] = molecular target: Disintegrin and metalloproteinase domain-containing protein 10 (Homo sapiens) (UniProt O14672); assay: Inhibition of ADAM10 assessed as residual activity at 10 uM after 10 to 15 mins by fluorescence assay relative to control
[38] = molecular target: T4, Matrix metalloproteinase-9; assay: Inhibition of MMP9 assessed as residual activity at 10 uM after 10 to 15 mins by fluorescence assay relative to control
[39] = molecular target: Matrilysin (Homo sapiens) (UniProt P09237); assay: Inhibition of MMP7 assessed as residual activity at 10 uM after 10 to 15 mins by fluorescence assay relative to control
[40] = molecular target: Prothrombin (Homo sapiens) (UniProt P00734); assay: Inhibition of thrombin alpha assessed as residual activity at 10 uM after 10 to 15 mins by fluorescence assay relative to control
[41] = molecular target: Dipeptidyl peptidase 1 (Homo sapiens) (UniProt P53634); assay: Inhibition of cathepsin C assessed as residual activity at 10 uM after 10 to 15 mins by fluorescence assay relative to control
[42] = molecular target: Caspase-4 (Mus musculus, UniProt P70343); assay: Inhibition of mouse caspase 11 after 10 to 15 mins by fluorescence assay
[43] = molecular target: T2, Neutrophil collagenase; assay: Inhibition of MMP8 catalytic domain after 10 to 15 mins by fluorescence assay
[44] = molecular target: Macrophage metalloelastase (Homo sapiens, UniProt P39900); assay: Inhibition of MMP12 catalytic domain after 10 to 15 mins by fluorescence assay
[45] = molecular target: 72 kDa type IV collagenase (Homo sapiens, UniProt P08253); assay: Inhibition of MMP2 after 10 to 15 mins by fluorescence assay
[46] = molecular target: T1, Stromelysin-2; assay: Inhibition of MMP10 assessed as residual activity at 10 uM after 10 to 15 mins by fluorescence assay relative to control
Target sequence in this assay (P09238 99-476 limits assumed): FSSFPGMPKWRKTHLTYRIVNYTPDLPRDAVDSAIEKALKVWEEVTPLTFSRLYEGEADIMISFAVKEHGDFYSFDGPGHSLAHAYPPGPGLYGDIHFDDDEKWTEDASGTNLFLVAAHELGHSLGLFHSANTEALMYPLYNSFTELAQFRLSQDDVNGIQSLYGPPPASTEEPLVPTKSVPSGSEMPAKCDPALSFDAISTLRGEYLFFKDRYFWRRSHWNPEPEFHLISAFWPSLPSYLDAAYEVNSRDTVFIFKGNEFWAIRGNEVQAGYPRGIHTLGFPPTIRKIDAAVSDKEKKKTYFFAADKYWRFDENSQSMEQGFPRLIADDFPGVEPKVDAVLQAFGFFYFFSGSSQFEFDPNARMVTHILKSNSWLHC

[47] = molecular target: Tryptase beta-1 (Homo sapiens) (UniProt Q15661); assay: Inhibition of tryptase beta2 assessed as residual activity at 10 uM after 10 to 15 mins by fluorescence assay relative to control
[48] = molecular target: Caspase-2 (Homo sapiens, UniProt P42575); assay: Inhibition of caspase 2 after 10 to 15 mins by fluorescence assay
Caspase-2, sequence (P42575 170-325 limits assumed): as the sequence (P42575 170-325 limits assumed) above
Caspase-2, sequence (P42575 334-452 limits assumed): as the sequence (P42575 334-452 limits assumed) above

[49] = molecular target: Kallikrein-5 (Homo sapiens) (UniProt Q9Y337); assay: Inhibition of kallikrein 5 assessed as residual activity at 10 uM after 10 to 15 mins by fluorescence assay relative to control
[50] = molecular target: T7, Stromelysin-1 (Homo sapiens, UniProt P08254); assay: Inhibition of MMP3 assessed as residual activity at 10 uM after 10 to 15 mins by fluorescence assay relative to control
[51] = molecular target: Beta-secretase 1 (Homo sapiens) (UniProt P56817); assay: Inhibition of BACE1 assessed as residual activity at 10 uM after 10 to 15 mins by fluorescence assay relative to control
[52] = molecular target: Disintegrin and metalloproteinase domain-containing protein 17 (Homo sapiens, UniProt P78536); details: 5.08 to 100000 nM
[53] = molecular target: Tryptase gamma (Homo sapiens) (UniProt Q9NRR2); assay: Inhibition of human lung tryptase gamma1 assessed as residual activity at 10 uM after 10 to 15 mins by fluorescence assay relative to control
[54] = molecular target: T3, Collagenase 3; assay: Inhibition of MMP13 catalytic domain after 10 to 15 mins by fluorescence assay
[55] = molecular target: Caspase-1 (Homo sapiens) (UniProt P29466); assay: Inhibition of caspase 1 assessed as residual activity at 10 uM after 10 to 15 mins by fluorescence assay relative to control
[56] = molecular target: Renin (Homo sapiens) (UniProt P00797); assay: Inhibition of human renin assessed as residual activity at 10 uM after 10 to 15 mins by fluorescence assay relative to control
Renin (Homo sapiens), sequence (P00797 whole entry): as the sequence (P00797 whole entry) above

[57] = molecular target: Stromelysin-3 (Homo sapiens) (UniProt P24347); assay: Inhibition of MMP11 assessed as residual activity at 10 uM after 10 to 15 mins by fluorescence assay relative to control
[58] = molecular target: Interstitial collagenase (Homo sapiens, UniProt P03956); assay: Inhibition of MMP1 after 10 to 15 mins by fluorescence assay
[59] = molecular target: Caspase-10 (Homo sapiens, UniProt Q92851); assay: Inhibition of caspase 10 after 10 to 15 mins by fluorescence assay
[60] = molecular target: T7, Stromelysin-1; assay: Inhibition of MMP3 after 10 to 15 mins by fluorescence assay
[61] = molecular target: Caspase-8 (Homo sapiens) (UniProt Q14790); assay: Inhibition of caspase 8 assessed as residual activity at 10 uM after 10 to 15 mins by fluorescence assay relative to control
[62] = molecular target: Dipeptidyl peptidase 9 (Homo sapiens) (UniProt Q86TI2); assay: Inhibition of DPP9 assessed as residual activity at 10 uM after 10 to 15 mins by fluorescence assay relative to control
[63] = molecular target: T5, Vitamin K-dependent protein C; assay: Inhibition of activated protein C after 10 to 15 mins by fluorescence assay in presence of 50% […]
[64] = molecular target: Angiotensin-converting enzyme (Homo sapiens) (UniProt P12821); assay: Inhibition of ACE1 assessed as residual activity at 10 uM after 10 to 15 mins by fluorescence assay relative to control

COC(=O)[C@@H]1CCCN1C(=O)[C@@H](Cc1ccccc1)N(C)C(=O)[C@H](C)NC(=O)[C@@H](NC(=O)C[C@H](O)[C@H](CC(C)C)NC(=O)[C@H](CC(N)=O)NC(=O)[C@H](CC(C)C)NC(=O)[C@H](OC(=O)[C@@H](OC(=O)[C@H](C(C)C)N(C)C)C(C)C)C(C)C)[C@@H](C)O [GRASSYSTATIN A] (NMe2Val-[Hiv][dHiv]LN[Sta]TA[dNMeF]P-OMe)
IC50 [1]: 5 µM
Activity [2]: 86%
IC50 [3]: 50 µM
Activity [4]: 78%
IC50 [5]: 5 µM
Activity [6]: 101%
Activity [7]: 70%
Activity [8]: 62%
Activity [9]: 75%
Activity [10]: 66%
IC50 [11]: 5 µM
IC50 [12]: 5 µM
Activity [13]: 101%
Activity [14]: 58%
Activity [15]: 63%
Activity [16]: 77%
IC50 [17]: 5 µM
IC50 [18]: 5 µM
Activity [19]: 130%
IC50 [20]: 5 µM
Activity [21]: 64%
Activity [22]: 78%
Activity [23]: 69%
Activity [24]: 102%
IC50 [25]: 5 µM
Activity [26]: 60%
inhibition [27]: tde
Activity [28]: 79%
Activity [29]: 96%
Activity [30]: 76%
Activity [31]: 80%
Activity [32]: 71%
IC50 [33]: 5 µM
Activity [34]: 94%
Activity [35]: 90%
Activity [36]: 84%
Activity [37]: 0%
Activity [38]: 81%
Activity [39]: 90%
Activity [40]: 86%
Activity [41]: 110%
IC50 [42]: 5 µM
IC50 [43]: 5 µM
IC50 [44]: 5 µM
IC50 [45]: 5 µM
Activity [46]: 76%
Activity [47]: 74%
IC50 [48]: 5 µM
Activity [49]: 84%
Activity [50]: 86%
Activity [51]: 100%
inhibition [52]: tde
Activity [53]: 80%
IC50 [54]: 5 µM
Activity [55]: 90%
Activity [56]: 96%
Activity [57]: 88%
IC50 [58]: 5 µM
IC50 [59]: 5 µM
IC50 [60]: 5 µM
Activity [61]: 82%
Activity [62]: 82%
IC50 [63]: 50 µM
Activity [64]: 84%
